Data from PubChem BioAssay (NCI).
Where “and” joins values, the source holds several entries; their conditions need not be identical. Equal entries are not always repeated.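 Grown in 96-well plates, cells were treated for 48 hours with each compound at five concentrations. Insufficient inhibition: endpoint recorded as highest concentration tested. Here, GI50 denotes the concentration required for 50% inhibition of growth. At the TGI there is no net growth.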 Where a SMILES comes first, the peptide text is derived from it. [ ]: non-standard residue; d: D form. The star is where a group is joined. Bn2Val = CC(C)[C@@H](C(=O)*)N(Cc1ccccc1)Cc1ccccc1; NH(4-Cl-benzyl) = Clc1ccc(CN*)cc1; NMeV = CN[C@H](C(=O)O)C(C)C; dNMeA = CN[C@H](C)C(=O)O

Key:
Test in all cases: growth of human tumour cells (NCI), 48 h
ACHN renal = tested on: ACHN renal
HOP-92 NSCLC = tested on: HOP-92 NSCLC
HT29 colon = tested on: HT29 colon
LOX IMVI melanoma = tested on: LOX IMVI melanoma
MDA-MB-435 = tested on: MDA-MB-435
NCI/ADR-RES ovarian = tested on: NCI/ADR-RES ovarian
PC-3 prostate = tested on: PC-3 prostate
SF-295 CNS = tested on: SF-295 CNS
SK-MEL-2 melanoma = tested on: SK-MEL-2 melanoma
SW-620 colon = tested on: SW-620 colon

SMILES	TGI (ACHN renal)	TGI (HOP-92 NSCLC)	TGI (HT29 colon)	TGI (LOX IMVI melanoma)	TGI (MDA-MB-435)	TGI (NCI/ADR-RES ovarian)	TGI (PC-3 prostate)	TGI (SF-295 CNS)	TGI (SK-MEL-2 melanoma)	TGI (SW-620 colon)	GI50 (HOP-92 NSCLC)	GI50 (HT29 colon)	GI50 (LOX IMVI melanoma)	GI50 (NCI/ADR-RES ovarian)	GI50 (SF-295 CNS)	GI50 (SK-MEL-2 melanoma)	GI50 (SW-620 colon)	GI50 (MDA-MB-435)	GI50 (ACHN renal)	GI50 (PC-3 prostate)
CCCCCCCCCCCCCCCCCCNc1nc(=O)n(C2CC(O)C(COP(=O)(O)O)O2)cc1F (stereo unspecified)	> 100 µM	> 100 µM	> 100 µM	> 100 µM	> 100 µM	> 100 µM	> 100 µM	> 100 µM	> 100 µM	> 100 µM	–	–	–	–	–	–	–	–	–	–
CC1=C2C(=CO[C@H](C)[C@H]2C)C(=O)C(C(=O)O)=C1O	46.7 µM	72.6 µM and 46.3 µM	63.9 µM and 88.9 µM	44.7 µM and 53.8 µM	76.1 µM	79.4 µM and 152 µM	> 85.3 µM	97.1 µM and 61.3 µM	48.1 µM and 37.5 µM	> 74.5 µM and 77.4 µM	16.1 µM	18.3 µM	20.1 µM	26.9 µM	24.7 µM	18.7 µM	26.9 µM	–	–	–
Cc1cc2c([nH]c3ccccc32)c(O)c1-c1c(C)cc2c([nH]c3ccccc32)c1O	27.3 µM	30.7 µM	19.5 µM	32.7 µM	28.2 µM	29.4 µM	25.9 µM	33.4 µM	30.6 µM	50.8 µM	–	6.04 µM	–	–	17.4 µM	–	–	15 µM	–	–
N#Cc1cc2c(n(C3OC(CO)C(O)C(O)C3O)c1=S)CCCCCC2 (stereo unspecified)	> 100 µM	> 100 µM	> 100 µM	> 100 µM	> 100 µM	> 100 µM	> 100 µM	> 100 µM	> 100 µM	> 100 µM	–	–	–	–	–	–	–	–	–	–
CCOP(=O)(OCC)/C(=C/c1cccs1)CC(C)=O	> 100 µM	> 100 µM	> 100 µM	> 100 µM	> 100 µM	> 100 µM	> 100 µM	> 100 µM	> 100 µM	> 100 µM	–	–	–	–	–	–	–	–	–	–
C#CCn1c(=O)c(C)cn(/C(=C\C(=O)OCC)C(=O)OCC)c1=O	3.22 µM	5.17 µM	4.03 µM	> 50.2 µM	21.2 µM	17.1 µM	27.6 µM	42.3 µM	32.8 µM	> 100 µM	–	–	–	–	–	–	2.14 µM	–	–	–
COc1ccc(C(SC2C(O)C(CO)OC2n2ccc(=O)[nH]c2=O)(c2ccccc2)c2ccc(OC)cc2)cc1 (stereo unspecified)	81.5 µM	29.7 µM	35.6 µM	31.5 µM	22.8 µM	47.1 µM	33 µM	43.3 µM	31.4 µM	63.6 µM	–	–	–	–	–	–	–	–	–	–
O=c1oc(C(C(F)(F)F)C(F)(F)F)nc2ccccc12	> 100 µM	> 100 µM	> 100 µM	> 100 µM	> 100 µM	> 100 µM	> 100 µM	> 100 µM	> 100 µM	> 100 µM	–	–	–	–	–	–	–	–	–	–
Nc1ccc(S(=O)(=O)Nc2nc3ccccc3nc2N2CCCCCC2)cc1	> 100 µM	63.6 µM	> 100 µM	33.5 µM	41.1 µM	> 100 µM	> 100 µM	57.3 µM	40.8 µM	54.1 µM	–	–	–	–	–	–	–	–	–	–
CN1C(=O)C(O)C[C@@H]1c1ccccc1 (stereo partly specified)	> 100 µM	> 100 µM	> 100 µM	> 100 µM	> 100 µM	> 100 µM	> 100 µM	> 100 µM	> 100 µM	> 100 µM	–	–	–	–	–	–	–	–	–	–
CC(C)(C)OC(=O)NCC(CNC(=O)OC(C)(C)C)c1nc(C(N)=O)cs1	> 100 µM	> 100 µM	> 100 µM	> 100 µM	> 100 µM	> 100 µM	> 100 µM	> 100 µM	> 100 µM	> 100 µM	–	–	–	–	–	–	–	–	–	–
CC(=O)Nc1ccc(OC/C(N)=N/NC(=O)c2ccncc2)cc1	> 100 µM	> 100 µM	> 100 µM	> 100 µM	> 100 µM	> 100 µM	> 100 µM	> 100 µM	> 100 µM	> 100 µM	–	–	–	–	–	–	–	–	–	–
Cc1nnc2n1N=C(c1ccc(Cl)cc1Cl)/C(=C/c1ccc(-c3ccc([N+](=O)[O-])cc3Cl)o1)S2	34.6 µM	72.5 µM	> 100 µM	27.4 µM	29 µM	37.4 µM	> 100 µM	> 100 µM	> 100 µM	33 µM	21.5 µM	49.9 µM	12.3 µM	18.4 µM	43.5 µM	32.8 µM	13.3 µM	13.5 µM	18.5 µM	31.3 µM
CC(C)[C@H](NC(=O)[C@H](C(C)C)N(Cc1ccccc1)Cc1ccccc1)C(=O)N(C)[C@H](C(=O)N1CCC[C@H]1C(=O)N(C)[C@H](C)C(=O)NCc1ccc(Cl)cc1)C(C)C (Bn2Val-V[NMeV]P[dNMeA]-{NH(4-Cl-benzyl)})	10.1 µM	17.9 µM	3.54 µM	3.63 µM	79.8 µM	95.7 µM	> 100 µM	11.1 µM	3.62 µM	> 100 µM	–	–	–	–	–	–	–	–	–	–
CC(C)C(C/C=C1\CC(CO)(COC(=O)C2CCCCC2)OC1=O)C(C)C (stereo unspecified)	32.3 µM	37.5 µM	79.5 µM	32.3 µM	> 100 µM	45.1 µM	37.2 µM	33.2 µM	> 100 µM	40.5 µM	–	–	–	–	–	–	–	–	–	–
O=C(Cc1ccc(Cl)c(Cl)c1)NCC1(N2CCCCC2)CCCCC1	> 100 µM	> 100 µM	> 100 µM	> 100 µM	> 100 µM	> 100 µM	> 100 µM	> 100 µM	> 100 µM	> 100 µM	–	–	–	–	–	–	–	–	–	–

SMILES	TGI (ACHN renal)	TGI (HOP-92 NSCLC)	TGI (HT29 colon)	TGI (LOX IMVI melanoma)	TGI (MDA-MB-435)	TGI (NCI/ADR-RES ovarian)	TGI (PC-3 prostate)	TGI (SF-295 CNS)	TGI (SK-MEL-2 melanoma)	TGI (SW-620 colon)	GI50 (HOP-92 NSCLC)	GI50 (HT29 colon)	GI50 (LOX IMVI melanoma)	GI50 (NCI/ADR-RES ovarian)	GI50 (SF-295 CNS)	GI50 (SK-MEL-2 melanoma)	GI50 (SW-620 colon)	GI50 (MDA-MB-435)	GI50 (ACHN renal)	GI50 (PC-3 prostate)
CCc1cc2c(c3c1CCCC3=O)CC1(Cc3ccc(C(=O)OC)cc3C1)C2 (stereo unspecified)	> 100 µM	> 100 µM	> 100 µM	> 100 µM	> 100 µM	> 100 µM	> 100 µM	> 100 µM	> 100 µM	> 100 µM	–	–	–	–	–	–	–	–	–	–
CCOP(=O)(O)CN1CCNCCN(CP(=O)(O)OCC)CCNCC1	> 100 µM	> 100 µM	> 100 µM	> 100 µM	> 100 µM	> 100 µM	> 100 µM	> 100 µM	> 100 µM	> 100 µM	–	–	–	–	–	–	–	–	–	–
CC(Oc1ccccc1Cl)C(=O)NN1C(=O)CSC1c1ccccc1 (stereo unspecified)	> 100 µM	> 100 µM	> 100 µM	> 100 µM	> 100 µM	> 100 µM	> 100 µM	> 100 µM	> 100 µM	> 100 µM	–	–	–	–	–	–	–	–	–	–
C=C(C)CC1(O[Si](C)(C)C)C(=O)C(OCC)=C1OCC (stereo unspecified)	> 100 µM	> 100 µM	> 100 µM	> 100 µM	> 100 µM	> 100 µM	> 100 µM	> 100 µM	> 100 µM	> 100 µM	–	–	–	–	–	–	–	–	–	–
COc1cnc2c(c1)C(=O)c1c-2n(CCCNCCO)c(=O)c2ccncc12	9.93 µM	6.31 µM	16.7 µM	3.9 µM	2.98 µM	30.8 µM	11.1 µM	7.89 µM	4.75 µM	12.4 µM	1.4 µM	0.633 µM	0.431 µM	5.83 µM	0.912 µM	1.81 µM	0.52 µM	1.31 µM	0.553 µM	1.44 µM
CC1(C)CC(=O)C2(CC(CSc3ccccc3)C(CS(=O)(=O)c3ccccc3)C2)C(=O)C1 (stereo unspecified)	> 100 µM	> 100 µM	> 100 µM	> 100 µM	> 100 µM	> 100 µM	> 100 µM	> 100 µM	> 100 µM	> 100 µM	–	–	–	–	–	–	–	–	–	–
O=C1c2c(O)cccc2-c2nn(CCNCCO)c3ccc(NCCNCCO)c1c23	0.992 µM	0.609 µM	13.1 µM	1.68 µM	1.87 µM	> 100 µM	2.16 µM	1.39 µM	1.38 µM	7.09 µM	–	–	–	–	–	–	–	–	–	–
COc1cc(C2C(Cl)C(=O)N2c2c(C)n(C)n(-c3ccccc3)c2=O)ccc1O (stereo unspecified)	34.9 µM	74 µM	36 µM	32.2 µM	31.8 µM	75.8 µM	> 100 µM	50 µM	50.4 µM	36.4 µM	–	–	–	–	–	–	–	–	–	–
O=C(Nc1ccccc1C(=O)NCc1ccccc1)/C(=C/c1ccccc1)NC(=O)c1ccccc1	> 100 µM	> 100 µM	> 100 µM	> 100 µM	> 100 µM	> 100 µM	> 100 µM	> 100 µM	> 100 µM	> 100 µM	–	–	–	–	–	–	–	–	–	–
O=C1OC[C@H]2[C@@H]1[C@H]1O[C@@H]2C2=C(CCC2)C1=O	> 100 µM	> 100 µM	> 100 µM	> 100 µM	> 100 µM	> 100 µM	> 100 µM	> 100 µM	> 100 µM	> 100 µM	–	–	–	–	–	–	–	–	–	–
O=C(c1cccs1)N1CCN(C(=O)c2cccs2)C1=S	20.5 µM	20.7 µM	21 µM	10.8 µM	10.2 µM	59 µM	15.6 µM	30.5 µM	28.3 µM	24.6 µM	–	–	–	–	–	–	–	–	–	–
CN(C)CCCNc1ccc2nnn3c4ccc(O)cc4c(=O)c1c23	13.5 µM	20.7 µM	15.6 µM	4.12 µM	20.9 µM	21.8 µM	17.5 µM	18.7 µM	26.3 µM	17.2 µM	–	–	–	–	–	–	–	–	–	–
O=C(CCN1CCN2c3ccccc3CCC2C1)c1ccc(F)cc1 (stereo unspecified)	43.3 µM	82.1 µM	41.7 µM	> 100 µM	47.4 µM	> 100 µM	> 100 µM	> 100 µM	53.3 µM	> 100 µM	–	–	–	–	–	–	–	–	–	–
O=c1[nH]n(Cc2ccccc2)c2ccc([N+](=O)[O-])cc12	> 100 µM	> 100 µM	> 100 µM	> 100 µM	85.3 µM	> 100 µM	> 100 µM	> 100 µM	> 100 µM	> 100 µM	–	–	–	–	–	–	–	–	–	–
CCOC(=O)c1cc2c([N+](=O)[O-])c(N)ccc2s1	> 100 µM	> 100 µM	> 100 µM	> 100 µM	> 100 µM	> 100 µM	> 100 µM	> 100 µM	> 100 µM	> 100 µM	–	–	–	–	–	–	–	–	–	–
C=C=C(CC(CC(=C)Br)(C(=O)OC)C(=O)OC)S(=O)(=O)c1ccccc1	6.83 µM	3.97 µM	2.95 µM	1.7 µM	4.17 µM	5.96 µM	4.31 µM	26.9 µM	8.22 µM	2.99 µM	–	–	–	–	–	–	–	–	–	–
